Assay type in all cases: in vivo
In test [1] the test system is mouches domestiques. Put plainly: Lethal effect on house flies, topical application. Particulars: for activité (conclusion): conclusion in words on the lethal test on house flies; for DL 50 (ng par individu): female house flies 4/5 days old, topical 1 µl acetone solution on dorsal thorax, mortality 24 h after treatment. The protocol: 1°); Etude de l'effet létal sur mouches domestiques.
Les insectes tests sont des mouches domestiques femelles âgées de 4/5 jours. On opère par application topique de 1 ul de solution acétonique du produit sur le thorax dorsal des insectes à l'aide du micro manipulateur d'Arnold. On utilise 50 individus par dose et par traitement. On effectue le contrôle de mortalité vingt-quatre heures après traitement.
Le résultat obtenu exprimé en DL 50 ou dose (en nanogrammes) nécessaire pour tuer 50% des insectes, est le suivant: […]

Test [2] concerns larves de Spodoptera littoralis. The experiment in a line: Effect on Spodoptera littoralis larvae, topical application. Particulars: for activité (conclusion): conclusion in words on the Spodoptera littoralis test; for DL 50 (ng par individu): fourth-instar larvae, topical acetone solution on dorsal thorax, mortality 48 h after treatment. The protocol:
2°): Etude de l'effet sur larves de Spodoptera littoralis.
Les essais sont effectués par application topique d'une solution acétonique du produit à tester à l'aide du micro manipulateur d'Arnold sur le thorax dorsal des larves. On utilise 15 larves par dose de produit à tester. Les larves utilisées sont des larves du quatrième stade larvaire, c'est-à-dire âgées d'environ 10 jours lorsqu'elles sont élevées à 24°C et 65% d'humidité relative. Après traitement, les individus sont placés sur un milieu nutritif artificiel (milieu de Poitout).
On effectue le contrôle des mortalités 48 heures après traitement.

Test [3] has as its system mouche domestique. Put plainly: Knock-down activity on house fly, direct spray in Kearns and March chamber. Particulars: for KT 50 en mn: direct spray, acetone/isopar L; for activité (conclusion): conclusion in words on the knock-down test. The protocol:
3°): Etude de l'activité de choc sur mouche domestique.
Les insectes tests sont des mouches domestiques femelles âgées de 4/5 jours. On opère par pulvérisation directe en chambre de Kearns et March en utilisant comme solvant un mélange en volumes égaux d'acétone et d'isopar L (quantité de solution utilisée 2 x 0,2 cm3). On utilise environ 50 insectes par dose de traitement. On effectue les contrôles toutes les minutes jusqu'à 10 minutes, puis à 15 minutes et l'on détermine le KT 50 par les méthodes habituelles.

Test [4] relates to blatte germanique (Blatella germanica). Put plainly: Tarsal contact activity on German cockroach. The protocol:
4°): Etude de l'activité par contact tarsal sur blatte germanique. (composé de l'exemple 1J
Les insectes testés sont des mâles de blatte germanique (Blatella germanica). On opère par dépôt d'une solution acétonique de concentration déterminée sur le fond d'une boîte de Petri de 20 cm de diamètre. Après séchage on laisse séjourner 20 mâles de blattes par concentration durant 1 heure puis on transfère les insectes sur milieu sain et on contrôle leur mortalité à 24 h, 48 h, 3 et 5 jours.

The test system of test [5] is Tétranychus urticae. The experiment in a line: Adulticide test on Tetranychus urticae on bean plants. Particulars: dose 2,8 mg/I, sprayed bean plants, checks after 1, 24, 48 and 72 h of contact. The protocol: 5°): Activité sur Tétranychus urticae. (composé de l'exemple 1)
On utilise des plants de haricot comportant deux feuilles cotylédonaires. Ces plants sont traités au pistolet Fisher avec une solution acétonique du produit. Après séchage 25 femelles de l'acarien Tétranychus urticae sont disposées par feuilles soit 50 individus par dose expérimentée par plant. Les contrôles d'efficacité sont effectués après 1, 24, 48 et 72 heures de contact.

The structures appear in SMILES notation.

Seven molecules from EP0048186B1, “Cyclopropane-carboxylic-acid derivatives, their preparation, their use in combating vegetal parasites, animals and locations, their compositions, and intermediates” (ROUSSEL-UCLAF, priority 1980, dated 1982) can be followed below.

With `CC1(C)[C@H](C(=O)O[C@H](C#N)c2cccc(Oc3ccccc3)c2)[C@@H]1/C=C\C(=O)OCC(F)(F)F` [Exemple 1, (1 R cis) 2,2-diméthyl 3/(Z) 3-(2,2,2-trifluoroéthoxy) 3-oxo 1-propényl/ cyclopropane carboxylatede (S) a-cyano 3-phénoxy benzyle], the “activité (conclusion)” value in test [1] was “activité remarquable”; in test [2], “bonne activité”; in test [3], “bonne activité”; in test [4] (conclusion in words on the tarsal contact test) it was “très bonne activité”. The “DL 50 (ng par individu)” value in test [1] is recorded as 1,115 ng par individu; in test [2], 4,699 ng par individu. Also, in test [3] (Concentration 1 g/l), the “KT 50 en mn” value was 3,534 mn. In addition, the “concentration létale 50 (CL 50)” value in test [4] (male cockroaches, 1 h contact with dried deposit in Petri dish, mortality checked at 24 h, 48 h, 3 and 5 days) is recorded as 0,216 mg/m2. In addition, in test [5], the “activité (essai adulticide)” value is “très bonne activité”.
Take `C=CCC1=C(C)[C@@H](OC(=O)[C@@H]2[C@H](/C=C\C(=O)OCC(F)(F)F)C2(C)C)CC1=O` [Exemple 2, (1R cis) 2,2-diméthyl-3-/(Z)-3-oxo-3-(2,2,2-trifluoroéthoxy) 1-propényll cyclopropane carboxylatede (1S) 2-diméthyl-4-oxo-3-(2-propényl) 2-cyclopenten-1-yle]: in test [3] (Concentration 0,25 g/l), the “KT 50 en mn” value is 3,608 mn. In test [3], the “activité (conclusion)” value is given as “bonne activité”.
With `CC1(C)[C@H](C(=O)O[C@H](C#N)c2cccc(Oc3ccccc3)c2)[C@@H]1/C=C\C(=O)OC(C(F)(F)F)C(F)(F)F` [Exemple 23, (1R cis) 2,2-diméthyl-3-/(Z)-3-oxo 3-(2-(1,1,1,3,3,3-hexafluoro)propoxy) 1-propényl/ cyclopropane carboxylatede (S) a-cyano 3-phénoxy benzyle], in test [1], the “activité (conclusion)” value is recorded as “activité remarquable” and the “DL 50 (ng par individu)” value was 0,962 ng par individu.
Take `C#CCN1CC(=O)N(COC(=O)[C@@H]2[C@H](/C=C\C(=O)OCC(F)(F)F)C2(C)C)C1=O` [Exemple 26, (1R cis) 2,2-diméthyl-3-/(Z)-3-oxo 3-(2,2,2-trifluoro éthoxy) 1-propényl/ cyclopropane carboxylatede (3-propargyl 2,5-dioxoimidazolidinyl) méthyle]: the “KT 50 en mn” value in test [3] (Concentration 0,25 g/l) is 1,550 mn. Further, the “activité (conclusion)” value in test [3] is given as “bonne activité”.
In the case of `C#C[C@@H](OC(=O)[C@@H]1[C@H](/C=C\C(=O)OCC(F)(F)F)C1(C)C)c1cccc(Oc2ccccc2)c1` [Exemple 29, (1R cis) 2,2-diméthyl-3-/(Z)-3-oxo 3-(2,2,2-trifluoro éthoxy) 1-propényl/ cyclopropane carboxylatede (R) a-éthynyl 3-phénoxy benzyle], in test [1], the “activité (conclusion)” value is given as “activité remarquable” and the “DL 50 (ng par individu)” value was 0,825 ng par individu.
Regarding `CC1(C)[C@H](C(=O)OC(C#N)c2cccc(Oc3ccccc3)n2)[C@@H]1/C=C\C(=O)OCC(F)(F)F` (stereo partly drawn) [Exemple 30, (1R cis) 2,2-diméthyl-3-/(Z)-3-oxo 3-(2,2,2-trifluoro éthoxy) 1-propényl/ cyclopropane carboxylatede (RS) a-cyano 6-phénoxy 2-pyridyl méthyle], the “KT 50 en mn” value in test [3] (Concentration 1 g/l) was 3,498 mn. Besides, the “activité (conclusion)” value in test [3] is listed as “bonne activité”.
Turning to `CC1(C)[C@H](C(=O)O[C@H](C#N)c2cccc(Oc3ccccc3)c2)[C@@H]1/C=C\C(=O)OCCF` [Exemple 35, (1R cis) 2,2-diméthyl-3-/(Z)-3-oxo 3-(2-fluoroéthoxy) 1-propényl/ cyclopropane carboxylatede (S) a-cyano 3-phénoxy benzyle], in test [2], the “activité (conclusion)” value is “bonne activité” and the “DL 50 (ng par individu)” value is 0,544 ng par individu. In addition, in test [3] (Concentration 1 g/l), the “KT 50 en mn” value is recorded as 2,894 mn. In addition, in test [3], the “activité (conclusion)” value is given as “bonne activité”.
